# According to US20100280120A1, “COMPOUND INDUCING ANGIOGENESIS RESPONSE IN ISCHAEMIC TISSUES” (Green Cross Therapeutics Private Limited, priority 2007, published 2010):
# Assays:
# [1] = system: binding of human VEGF to its receptor on A549 cells; assay: Angiogenic potential: binding of human VEGF to its receptors on A549 cells (anti-VEGF immunofluorescence, confocal); format: cell-based
# Experimental: The angiogenic potential of compound was tested by binding human VEGF to its putative receptors. Human lung epithelial cells (A549 which are highly metastatic and therefore angiogenic in nature) were grown on coverslip in DMEM/F-12 (1:1) or RPMI 1640 media supplemented with 10% FBS, insulin (0.1 units/ml), L-glutamine (2 mM), sodium pyruvate (100 μg/ml), non-essential amino acids (100 μM), penicillin (100 units/ml) and streptomycin ([…]). Cells were incubated at 37° C. in a humidified atmosphere of 5% CO2. The pH of the medium was maintained at 6.2 for the binding assay of VEGF to its receptor in the presence of compound. The cells were pre-treated with media alone or with 25 μg/ml compound for 30 min. The cells were then incubated with 10 ng/ml human VEGF for further 30 min at 37° C. in a humidified atmosphere of 5% CO2. The cells were fixed and stained with anti-VEGF antibody coupled with Alexaflour 488. The cells were visualized in Zeiss-confocal microscope.
# [2] = system: primary cells or cell lines from various origin (human cell lines); assay: In vitro toxicity screening of primary cells or cell lines, Trypan blue-exclusion viability test; format: cell-based
# Experimental: To study the toxic effects of compound, a wide spectrum of primary cells or cell lines from various origin were screened for viability, using Trypan blue-exclusion test. Cells were grown in cultures in DMEM/F-12 (1:1) or RPMI 1640 media supplemented with 10% FBS, insulin (0.1 units/ml), L-glutamine (2 mM), sodium pyruvate (100 μg/ml), non-essential amino acids (100 μM), penicillin (100 units/ml) and streptomycin ([…]). Cells were incubated at 37° C. in a humidified atmosphere of 5% CO2.
# Different cells from different origins were cultured in vitro. Various doses of GC-S were added in culture medium. After 24 h number of surviving cells was counted. Each experiment was performed in triplicate and the values agreed well with those of independent experiments
# [3] = system: Swiss albino mice; assay: Systemic toxicity in mice: serum toxicity marker enzymes (GOT, GPT, ALP); details: doxorubicin 5 mg/kg body weight
# Experimental: All animal experiments were performed following ‘Principles of laboratory animal care’ (NIH publication No. 85-23, revised in 1985) as well as specific Indian laws on ‘Protection of Animals’ under the provision o authorized investigators. Swiss albino mice (˜20 g each; 10-12 weeks old; 3 mice in each group) were randomly divided into (i) untreated set (i.v. injected with PBS as vehicle only) and (ii) drug-treated set (Compound of this invention 0.1, 0.3, 1.0, 3.0, 10 and 30 mg/kg body weight) for 14 days. Untreated mice received sterile PBS as carrier vehicle. Doxorubicin (5 mg/kg body weight) was used as positive control for toxicity assays.
# For statistical analysis, one-way analysis of variance (ANOVA) was conducted, followed by the Newman-Keuls multiple comparison test. Mean differences with p<0.05 were considered statistically significant.
# Hepato and cardio toxicity due to drug regimens are the shortfall in many instances. The serum levels of GOT, GPT and ALP are clinical indicators of drug-induced toxicity. Blood samples were collected from the retro-orbital plexus of normal and the subject compound-treated mice. Total serum glutamate oxaloacetate transaminase ([…]), glutamate pyruvate transaminase (SGPT), and alkaline phosphate were assayed according to standard protocols.
# Serum GOT, GPT and ALP activities as a marker of systemic toxicity were measured from blood of untreated or treated mice.
SMILES,"Increase of binding of VEGF to its receptor ([1]; A549 cells pre-incubated with 25 μg/ml compound 30 min, then 10 ng/ml human VEGF 30 min, pH 6.2)","VEGF binding on the membrane of normal A549 cell after compound treatment ([1]; A549 cells, compound alone, no added VEGF)","Toxicity to cells ([2]; 100 and 200 μg/mL doses, below significant killing)",Toxic effects on cells ([2]; doses 12.5 to 200 μg/mL range),"Percent of cell killing ([2]; up to 50 μg/mL doses, 24 h, Trypan blue exclusion)",ALP [3],SGOT [3],SGPT [3],"Levels of serum GOT and GPT ([3]; positive control, p<0.05)"
NCCCCC(N)C(=O)O (stereo not drawn) [Compound of this invention],10-15 times,remains unaltered,mild toxicity,no toxic effects,less than 5%,–,–,–,–
COc1cccc2c1C(=O)c1c(O)c3c(c(O)c1C2=O)C[C@@](O)(C(=O)CO)C[C@@H]3O[C@H]1C[C@H](N)[C@H](O)[C@H](C)O1 [Doxorubicin],–,–,–,–,–,43 KA units,79 IU/dL,68 IU/dL,significantly increased
